Experimental data published in publication PMC10866072, “Design, synthesis, molecular modelling and biological evaluation of novel 6-amino-5-cyano-2-thiopyrimidine derivatives as potent anticancer agents against leukemia and apoptotic inducers” (Journal of Enzyme Inhibition and Medicinal Chemistry, 2024).

Tests used:
CCRF-CEM = type: cell-based; details: Homo sapiens, one dose 10^-5 M, 48 h
HL-60(TB) = type: cell-based; details: Homo sapiens, one dose 10^-5 M, 48 h
K-562 = type: cell-based; details: Homo sapiens, K562, one dose 10^-5 M, 48 h
MOLT-4 = type: cell-based; details: Homo sapiens, one dose 10^-5 M, 48 h, read-out: % growth
RPMI-8226 = type: cell-based; details: Homo sapiens, one dose 10^-5 M, 48 h
SR = type: cell-based; details: Homo sapiens, one dose 10^-5 M, 48 h
A549/ATCC = type: cell-based; details: Homo sapiens, one dose 10^-5 M, 48 h
EKVX = type: cell-based; details: Homo sapiens, one dose 10^-5 M, 48 h
HOP-62 = type: cell-based; details: Homo sapiens, one dose 10^-5 M, 48 h
HOP-92 = type: cell-based; details: Homo sapiens, one dose 10^-5 M, 48 h
NCI-H226 = type: cell-based; details: Homo sapiens, one dose 10^-5 M, 48 h
NCI-H23 = type: cell-based; details: Homo sapiens, one dose 10^-5 M, 48 h, read-out: % growth
NCI-H460 = type: cell-based; details: Homo sapiens, one dose 10^-5 M, 48 h, read-out: % growth
NCI-H522 = type: cell-based; details: Homo sapiens, one dose 10^-5 M, 48 h
COLO 205 = type: cell-based; details: Homo sapiens, one dose 10^-5 M, 48 h
HCC-2998 = type: cell-based; details: Homo sapiens, one dose 10^-5 M, 48 h
HCT-116 = type: cell-based; details: Homo sapiens, one dose 10^-5 M, 48 h, read-out: % growth
HCT-15 = type: cell-based; details: Homo sapiens, one dose 10^-5 M, 48 h, read-out: % growth
HT29 = type: cell-based; details: Homo sapiens, HT-29, one dose 10^-5 M, 48 h
KM12 = type: cell-based; details: Homo sapiens, one dose 10^-5 M, 48 h
SW-620 = type: cell-based; details: Homo sapiens, one dose 10^-5 M, 48 h
SF-268 = type: cell-based; details: Homo sapiens, one dose 10^-5 M, 48 h, read-out: % growth
SF-295 = type: cell-based; details: Homo sapiens, one dose 10^-5 M, 48 h
SF-539 = type: cell-based; details: Homo sapiens, one dose 10^-5 M, 48 h
SNB-19 = type: cell-based; details: Homo sapiens, one dose 10^-5 M, 48 h, read-out: % growth
U251 = type: cell-based; details: Homo sapiens, U-251, one dose 10^-5 M, 48 h
LOX IMVI = type: cell-based; details: Homo sapiens, one dose 10^-5 M, 48 h, read-out: % growth
MALME-3M = type: cell-based; details: Homo sapiens, one dose 10^-5 M, 48 h
M14 = type: cell-based; details: Homo sapiens, one dose 10^-5 M, 48 h
MDA-MB-435 = type: cell-based; details: Homo sapiens, one dose 10^-5 M, 48 h, read-out: % growth
SK-MEL-2 = type: cell-based; details: Homo sapiens, one dose 10^-5 M, 48 h
SK-MEL-28 = type: cell-based; details: Homo sapiens, one dose 10^-5 M, 48 h
SK-MEL-5 = type: cell-based; details: Homo sapiens, one dose 10^-5 M, 48 h, read-out: % growth
UACC-257 = type: cell-based; details: Homo sapiens, one dose 10^-5 M, 48 h
UACC-62 = type: cell-based; details: Homo sapiens, one dose 10^-5 M, 48 h
IGROV1 = type: cell-based; details: Homo sapiens, IGROV-1, one dose 10^-5 M, 48 h, read-out: % growth
OVCAR-3 = type: cell-based; details: Homo sapiens, one dose 10^-5 M, 48 h
OVCAR-4 = type: cell-based; details: Homo sapiens, one dose 10^-5 M, 48 h
OVCAR-5 = type: cell-based; details: Homo sapiens, one dose 10^-5 M, 48 h
OVCAR-8 = type: cell-based; details: Homo sapiens, one dose 10^-5 M, 48 h
NCI/ADR-RES = type: cell-based; details: Homo sapiens, one dose 10^-5 M, 48 h
SK-OV-3 = type: cell-based; details: Homo sapiens, one dose 10^-5 M, 48 h
786-0 = type: cell-based; details: Homo sapiens, one dose 10^-5 M, 48 h
A498 = type: cell-based; details: Homo sapiens, one dose 10^-5 M, 48 h
ACHN = type: cell-based; details: Homo sapiens, one dose 10^-5 M, 48 h
CAKI-1 = type: cell-based; details: Homo sapiens, CAKI-1, 48 h, one dose 10^-5 M, 48 h
RXF 393 = type: cell-based; details: Homo sapiens, RXF 393, 48 h, one dose 10^-5 M, 48 h, read-out: % growth
SN12C = type: cell-based, human; details: Homo sapiens, one dose 10^-5 M, 48 h
TK-10 = type: cell-based; details: Homo sapiens, one dose 10^-5 M, 48 h
UO-31 = type: cell-based; details: Homo sapiens, UO-31, 48 h, one dose 10^-5 M, 48 h
PC-3 = type: cell-based; details: Homo sapiens, one dose 10^-5 M, 48 h
DU-145 = type: cell-based; details: Homo sapiens, one dose 10^-5 M, 48 h
MCF7 = type: cell-based; details: Homo sapiens, one dose 10^-5 M, 48 h, read-out: % growth
MDA-MB-231/ATCC = type: cell-based; details: Homo sapiens, one dose 10^-5 M, 48 h
HS 578T = type: cell-based; details: Homo sapiens; one dose 10^-5 M, 48 h; HS 578T; read-out: % growth
BT-549 = type: cell-based; details: Homo sapiens, one dose 10^-5 M, 48 h
T-47D = type: cell-based; details: Homo sapiens, T47D, one dose 10^-5 M, 48 h, read-out: % growth
MDA-MB-468 = type: cell-based; details: Homo sapiens, one dose 10^-5 M, 48 h
[1] = system: full NCI 60 cell lines panel

With `N=C(NN=Cc1ccc(Cl)cc1Cl)c1c(N)nc(S)nc1-c1ccc(Cl)cc1Cl` [Compound 4r, 4-amino-6–(2,4-dichlorophenyl)-N'-[(2,4-dichlorophenyl)methylene]-2-mercapto pyrimidine-5-carboximidohydrazide] the % cell growth at 10 µM (CCRF-CEM) was 94.9%, the % growth at 10 µM (HL-60(TB)) was 102% and the % growth at 10 µM (K-562) was 100%. For the same molecule, the activity at 10 µM (MOLT-4) was 100%, the % growth at 10 µM (RPMI-8226) was 106% and the percent cell growth at 10 µM (SR) was 92.6%. It also gave a % growth at 10 µM (A549/ATCC) of 102%, a % cell growth at 10 µM (EKVX) of 114% and a % growth at 10 µM (HOP-62) of 102%. It also gave a % growth at 10 µM (HOP-92) of 78%, a % growth at 10 µM (NCI-H226) of 106% and an activity at 10 µM (NCI-H23) of 104%. It also gave an activity at 10 µM (NCI-H460) of 111%, a % growth at 10 µM (NCI-H522) of 100% and a % growth at 10 µM (COLO 205) of 113%. For the same molecule, the % growth at 10 µM (HCC-2998) was 100%, the activity at 10 µM (HCT-116) was 102% and the activity at 10 µM (HCT-15) was 113%. The % growth at 10 µM (HT29) was 118%, the % growth at 10 µM (KM12) was 100% and the % growth at 10 µM (SW-620) was 105%. For the same molecule, the activity at 10 µM (SF-268) was 101%, the % cell growth at 10 µM (SF-295) was 98.5% and the % growth at 10 µM (SF-539) was 101%. It also gave an activity at 10 µM (SNB-19) of 94.6%, a % growth at 10 µM (U251) of 105% and an activity at 10 µM (LOX IMVI) of 104%. The % growth at 10 µM (MALME-3M) was 86.5%, the % growth at 10 µM (M14) was 97.4% and the activity at 10 µM (MDA-MB-435) was 113%. It also gave a % growth at 10 µM (SK-MEL-2) of 111%, a % cell growth at 10 µM (SK-MEL-28) of 113% and an activity at 10 µM (SK-MEL-5) of 107%. The percent cell growth at 10 µM (UACC-257) was 106%, the % growth at 10 µM (UACC-62) was 96.4% and the activity at 10 µM (IGROV1) was 102%. It also gave a % growth at 10 µM (OVCAR-3) of 108%, a % growth at 10 µM (OVCAR-4) of 104% and a percent cell growth at 10 µM (OVCAR-5) of 117%. It also gave a % growth of cells at 10 µM (OVCAR-8) of 110%, a cell growth percent at 10 µM (NCI/ADR-RES) of 111% and a % growth at 10 µM (SK-OV-3) of 105%. For the same molecule, the % growth at 10 µM (786-0) was 87.5%, the % growth at 10 µM (A498) was 117% and the % growth at 10 µM (ACHN) was 107%. For the same molecule, the % growth at 10 µM (CAKI-1) was 109%, the activity at 10 µM (RXF 393) was 119% and the % growth at 10 µM (SN12C) was 102%. For the same molecule, the % cell growth at 10 µM (TK-10) was 112%, the % cell growth at 10 µM (UO-31) was 92.5% and the percent cell growth at 10 µM (PC-3) was 98.1%. It also gave a % growth at 10 µM (DU-145) of 108%, an activity at 10 µM (MCF7) of 98.9% and a % growth at 10 µM (MDA-MB-231/ATCC) of 101%. For the same molecule, the activity at 10 µM (HS 578T) was 105%, the % cell growth at 10 µM (BT-549) was 91.6% and the activity at 10 µM (T-47D) was 103%. For the same molecule, the percent cell growth at 10 µM (MDA-MB-468) was 111%, the activity at 10 µM ([1]; Homo sapiens, 60 cell, 48 h, read-out: Mean % growth) was 104% and the “activity on all 60 cancer cell lines tested (in words)” value ([1]; one dose) was “weak activity”. It also gave a Mean % growth ([1]; one dose 10^-5 M, 48 h, mean over all cell lines) of 103.80%.
